Patent US9782472B2, “Therapeutic compositions and methods for treating HIV including identification and manipulation of particular domains associated with immunogenicity” (The Regents of The University of California, priority 2008, dated 2017)

How the values were obtained:
Assay type in all cases: cell-based, HIV-1
108069_011 wtS = tested on: 108069_011 wtS
Excerpt: (§1) Construction of envelope gene libraries and pseudoviruses. Libraries of envelope glycoprotein were created from each subject by PCR amplification of full length envelope genes from cryopreserved plasma using the method described previously. The swarm of PCR products was cloned into a plasmid expression vector useful for the construction of pseudoviruses. The vector was specifically designed to permit the construction of pseudovirus libraries for use in a well-established and validated virus neutralization assay. However, instead of pooling all of the clones together and carrying out neutralization assays or drug sensitivity assays with an entire library of cloned genes from each infected individual as had been done previously, we plated out the plasmid library on agar plates and picked 24-48 clones from each individual for infectivity studies. The plasmid DNA was isolated from each clone and used to create a stock of pseudovirus particles that were then screened for infectivity, and chemokine receptor usage. After verifying infectivity and receptor usage, we then selected approximately ten CCR5-dependent pseudotype viruses with good infectivity for virus neutralization assays. The virus neutralization assays were carried out as described by Schweighardt et al.
(§2) Virus neutralization assay. The automated virus neutralization assay described in this study has been described previously. The neutralization data reported represent IC50 values calculated from serum dilution curves. This assay employs multiple assay controls, including a positive pseudotype virus control panel and a negative pseudotype virus control panel. Assay acceptability criteria have been established to minimize interassay variability and assure comparability of data from different experiments. The positive virus control panel includes the pseudotypes from the neutralization sensitive isolate, NL43, and the less neutralization sensitive primary isolate JRcsf. The negative virus (specificity) control consists of pseudotype viruses prepared from the envelope of the amphitropic murine leukemia virus.

108051_005 wtR = tested on: 108051_005 wtR
Excerpt: as §1, §2

108069_005 wtR = tested on: 108069_005 wtR
Excerpt: as §1, §2

108060 clone 024 wtS = tested on: 108060 clone 024 wtS
Excerpt: as §1, §2

108051_006 wtS = tested on: 108051_006 wtS
Excerpt: as §1, §2

108060 clone 022 wtR = details: 108060_022 wtR; 50% inhibition in target cell infection
Excerpt: as §1, §2

108051_005 Q655R = 108051_005 Q655R (numbering of 108060)
Excerpt: as §1
(§3) Sequencing and mutagenesis. Plasmids containing cloned envelope glycoproteins were sequenced using fluorescently labeled dideoxynucleotides at either Monogram Biosciences or the University of California Sequencing Facility (Berkeley, Calif.) using capillary electrophoresis sequencing devices (Applied Biosystems, Foster City, Calif.). HIV envelope glycoprotein sequences were mutagenized by a mismatched primer method using the QuikChange Mutagenesis kit (Stratagene, San Diego). All mutations were confirmed by DNA sequencing. The numbering of amino acids is made with reference to the sequence of gp160 from clone 022 of from subject 108060. Position 655 corresponds to position 653 of the HXB2 reference strain of HIV-1.
as §2

108060_024 R655Q = tested on: 108060_024 R655Q
Excerpt: as §1, §3, §2

108069_005 Q655R = tested on: 108069_005 Q655R
Excerpt: as §1, §3, §2

108060_022 Q655R = tested on: 108060_022 Q655R
Excerpt: as §1, §3, §2

enfuvirtide
IC50 of indicated MAb or fusion inhibitor (108069_011 wtS): 0.145 µg/mL | IC50 of indicated MAb or fusion inhibitor (108051_005 wtR): 0.088 µg/mL | IC50 of indicated MAb or fusion inhibitor (108069_005 wtR): 0.071 µg/mL | IC50 of indicated MAb or fusion inhibitor (108060 clone 024 wtS; 108060_024 wtS): 0.019 µg/mL | Fold more sensitive to neutralization (108060 clone 024 wtS; clone 024 compared with clone 022 of subject 108060): 3.5 fold | IC50 of indicated MAb or fusion inhibitor (108051_006 wtS): 0.008 µg/mL | IC50 of indicated MAb or fusion inhibitor (108060 clone 022 wtR): 0.068 µg/mL | IC50 of indicated MAb or fusion inhibitor (108051_005 Q655R): 0.036 µg/mL | IC50 of indicated MAb or fusion inhibitor (108060_024 R655Q): 0.130 µg/mL | IC50 of indicated MAb or fusion inhibitor (108069_005 Q655R; 108069_005 Q655R (numbering of 108060)): 0.011 µg/mL | Fold increase in sensitivity (108069_005 Q655R; Q to R at position corresponding to 655 in the 108069 virus, versus parental virus): more than 17 fold | IC50 of indicated MAb or fusion inhibitor (108060_022 Q655R; 108060_022 Q655R): 0.004 µg/mL | Fold increase in neutralization sensitivity (108060_022 Q655R; 108060_022 Q655R compared with wild-type clone 022): 17 fold
